Results as given in patent US10172868B2, “Substituted quinazolines for inhibiting kinase activity” (NeuPharma, Inc., priority 2013, dated 2019).

What was measured:
[1] = target: EGFR (ErbB1) (Homo sapiens (Human), UniProt P00533); assay: Z'-LYTE kinase inhibition assay, EGFR; type: biochemical; conditions: for inhibition at 0.041 µM: read-out: % inhibition against EGFR (Compound at 0.041 μM)
Method in brief: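 Z'-LYTE FRET assay run with 1.1-5.25 ng EGFR and 2 μM peptide substrate in 50 mM HEPES pH 7.5, 10 mM MgCl2, 2 mM MnCl2, 1 mM EGTA, 1 mM DTT, 0.01% BRIJ-35, 1% DMSO. Kinase reaction 60 min at room temperature, then 60 min development; IC50 from 10-point 3-fold titrations.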

[2] = target: EGFR (ErbB1) T790M L858R (Homo sapiens (Human), UniProt P00533, L858R/T790M); assay: Z'-LYTE kinase inhibition assay, EGFR L858R/T790M; type: biochemical; conditions: for inhibition at 0.0137 µM: read-out: % inhibition against EGFR L858R/T790M (Compound at 0.0137 μM); for IC50: read-out: IC50 against EGFR L858R/T790M
Method in brief: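 Z'-LYTE FRET peptide assay at 1% DMSO, 10-point 3-fold titrations; kinase/peptide mix in 50 mM HEPES pH 6.5, 0.01% BRIJ-35, 10 mM MgCl2, 1 mM EGTA, 0.02% NaN3. Kinase reaction ran 60 min at room temperature, followed by 60 min development and a fluorescence read. IC50 derived from the concentration series.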

[3] = target: BTK (Homo sapiens (Human), UniProt Q06187); assay: Z'-LYTE kinase inhibition assay, BTK; type: biochemical; conditions: compound at 0.041 μM; read-out: % inhibition against BTK
Method: Inhibitory activities of compounds against BTK, EGFR and EGFR mutants (EGFR L858R, EGFR T790M, EGFR L858R/T790M), FGFR1, FGFR2, JAK2, JAK3 and KDR were measured by Invitrogen using Z'-LYTE® Method as briefly described in the following.
Test Compounds are screened in 1% DMSO (final) in the well. For 10 point titrations, 3-fold serial dilutions are conducted from the starting concentration. All ATP Solutions are diluted to a 4× working concentration in Kinase Buffer (50 mM HEPES pH 7.5, 0.01% BRIJ-35, 10 mM MgCl2, 1 mM EGTA). Peptide/Kinase Mixtures are diluted to a 2× working concentration in the appropriate Kinase Buffers as described below.
(v) Peptide/Kinase Mixtures for Measurement of BTK:
The 2×BTK/Tyr 01 mixture is prepared in 50 mM HEPES pH 7.5. 0.01% BRIJ-35, 10 mM MgCl2, 1 mM EGTA.
The mixture is then incubated for another 60-minute at room temperature for development reaction. Finally fluorescence is read by plate reader.
To determine IC50 of a compound against EGFR, EGFR mutant and other kinases, a series of concentrations of the compound were tested for the inhibition. […] The scale utilized in Table 4 is as follows: +++ less than 100 nM, ++ 100-500 nM and + greater than 500 nM.

[4] = tested on: H1975 cells; assay: Inhibition of cancer cell growth, MTT assay, H1975; conditions: Homo sapiens, NCI-H1975, 72 h, read-out: IC50 in H1975 cells
[5] = tested on: A431 cells; assay: cells; conditions: Homo sapiens, A-431, 72 h, read-out: IC50 in A431 cells

Sequence of BTK (Q06187 whole entry): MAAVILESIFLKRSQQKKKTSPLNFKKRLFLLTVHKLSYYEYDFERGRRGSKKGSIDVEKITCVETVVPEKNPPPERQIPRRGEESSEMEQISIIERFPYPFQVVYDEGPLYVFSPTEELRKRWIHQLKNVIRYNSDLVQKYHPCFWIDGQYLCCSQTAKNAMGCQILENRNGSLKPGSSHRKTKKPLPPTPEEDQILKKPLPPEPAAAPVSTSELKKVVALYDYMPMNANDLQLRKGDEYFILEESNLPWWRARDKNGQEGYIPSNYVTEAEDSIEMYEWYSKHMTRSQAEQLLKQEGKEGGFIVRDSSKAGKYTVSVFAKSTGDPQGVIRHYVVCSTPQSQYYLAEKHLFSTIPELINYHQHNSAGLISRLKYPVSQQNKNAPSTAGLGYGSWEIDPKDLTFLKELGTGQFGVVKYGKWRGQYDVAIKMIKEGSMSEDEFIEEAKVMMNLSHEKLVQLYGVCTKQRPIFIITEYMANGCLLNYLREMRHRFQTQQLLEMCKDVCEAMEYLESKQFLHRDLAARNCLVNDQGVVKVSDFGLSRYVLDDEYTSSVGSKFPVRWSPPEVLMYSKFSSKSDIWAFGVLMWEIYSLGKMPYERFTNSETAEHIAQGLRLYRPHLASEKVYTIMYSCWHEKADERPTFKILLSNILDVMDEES
Sequence of EGFR (ErbB1) T790M L858R (P00533 25-1210 T790M/L858R): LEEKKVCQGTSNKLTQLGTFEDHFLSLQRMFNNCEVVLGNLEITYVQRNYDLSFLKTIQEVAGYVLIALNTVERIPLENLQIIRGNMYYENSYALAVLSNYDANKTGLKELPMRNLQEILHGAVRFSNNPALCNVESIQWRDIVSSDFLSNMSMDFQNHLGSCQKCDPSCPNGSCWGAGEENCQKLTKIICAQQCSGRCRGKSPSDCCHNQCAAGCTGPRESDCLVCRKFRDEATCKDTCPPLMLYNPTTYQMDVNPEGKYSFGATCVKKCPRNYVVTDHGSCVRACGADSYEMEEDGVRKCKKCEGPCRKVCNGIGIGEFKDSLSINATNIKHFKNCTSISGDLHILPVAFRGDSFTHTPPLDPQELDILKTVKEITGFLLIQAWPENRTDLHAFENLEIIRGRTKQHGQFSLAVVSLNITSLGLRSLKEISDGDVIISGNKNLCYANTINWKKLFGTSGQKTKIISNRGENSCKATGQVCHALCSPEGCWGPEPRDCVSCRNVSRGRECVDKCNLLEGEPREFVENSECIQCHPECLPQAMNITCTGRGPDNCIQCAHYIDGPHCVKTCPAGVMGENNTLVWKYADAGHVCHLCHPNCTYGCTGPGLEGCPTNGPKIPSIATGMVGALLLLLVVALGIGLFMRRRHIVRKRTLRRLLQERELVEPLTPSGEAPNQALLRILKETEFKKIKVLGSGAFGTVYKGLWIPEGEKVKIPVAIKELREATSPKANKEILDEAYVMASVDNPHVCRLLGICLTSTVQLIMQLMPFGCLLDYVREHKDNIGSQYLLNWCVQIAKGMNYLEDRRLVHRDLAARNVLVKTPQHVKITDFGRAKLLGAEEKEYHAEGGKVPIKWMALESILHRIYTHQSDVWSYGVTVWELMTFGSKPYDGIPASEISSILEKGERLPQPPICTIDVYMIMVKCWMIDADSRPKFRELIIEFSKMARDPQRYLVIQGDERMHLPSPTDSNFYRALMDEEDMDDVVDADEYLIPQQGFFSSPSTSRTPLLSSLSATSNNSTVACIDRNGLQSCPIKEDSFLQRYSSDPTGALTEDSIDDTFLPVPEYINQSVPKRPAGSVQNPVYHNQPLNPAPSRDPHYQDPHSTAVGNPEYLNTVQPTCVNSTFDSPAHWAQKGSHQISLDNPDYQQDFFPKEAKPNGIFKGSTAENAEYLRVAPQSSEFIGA
Sequence of EGFR (ErbB1) (P00533 25-1210): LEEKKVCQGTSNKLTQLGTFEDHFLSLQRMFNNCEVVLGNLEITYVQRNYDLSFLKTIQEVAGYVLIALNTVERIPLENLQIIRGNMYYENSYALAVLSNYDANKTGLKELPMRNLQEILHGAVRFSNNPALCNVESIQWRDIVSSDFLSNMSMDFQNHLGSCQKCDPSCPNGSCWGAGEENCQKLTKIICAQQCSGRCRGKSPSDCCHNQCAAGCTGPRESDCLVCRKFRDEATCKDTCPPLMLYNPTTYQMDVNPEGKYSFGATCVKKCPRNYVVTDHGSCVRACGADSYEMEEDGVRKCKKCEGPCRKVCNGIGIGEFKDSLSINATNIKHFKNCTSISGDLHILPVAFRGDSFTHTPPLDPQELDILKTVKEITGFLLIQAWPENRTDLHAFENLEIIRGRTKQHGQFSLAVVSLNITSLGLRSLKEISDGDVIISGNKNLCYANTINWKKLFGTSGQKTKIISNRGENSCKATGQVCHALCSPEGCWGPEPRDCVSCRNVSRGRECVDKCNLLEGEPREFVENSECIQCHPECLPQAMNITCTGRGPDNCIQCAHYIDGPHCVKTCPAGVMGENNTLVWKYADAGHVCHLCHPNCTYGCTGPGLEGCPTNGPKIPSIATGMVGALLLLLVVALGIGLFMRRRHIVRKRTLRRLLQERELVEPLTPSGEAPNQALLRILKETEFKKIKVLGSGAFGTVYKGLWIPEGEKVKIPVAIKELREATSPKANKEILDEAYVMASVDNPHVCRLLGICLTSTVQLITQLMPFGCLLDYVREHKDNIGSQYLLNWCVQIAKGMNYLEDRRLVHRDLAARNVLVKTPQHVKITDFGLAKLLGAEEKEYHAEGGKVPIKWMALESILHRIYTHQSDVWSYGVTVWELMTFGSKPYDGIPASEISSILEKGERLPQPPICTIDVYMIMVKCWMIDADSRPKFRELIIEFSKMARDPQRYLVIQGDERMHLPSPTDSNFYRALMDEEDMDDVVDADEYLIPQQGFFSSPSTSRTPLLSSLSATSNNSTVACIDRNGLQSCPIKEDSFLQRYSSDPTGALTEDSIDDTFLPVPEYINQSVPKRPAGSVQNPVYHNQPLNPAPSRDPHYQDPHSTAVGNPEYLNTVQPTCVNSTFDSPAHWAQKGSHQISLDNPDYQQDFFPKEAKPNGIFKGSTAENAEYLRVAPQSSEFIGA

SMILES | inhibition at 0.041 µM [1] [%] | inhibition at 0.0137 µM [2] [%] | inhibition at 0.041 µM [3] [%] | IC50 [4] [nM] | IC50 [2] [nM] | IC50 [5] [nM] | IC50 ([1]; read-out: IC50 against EGFR) [nM]
C=CC(=O)Nc1cccc(-c2cccc3cnc(Nc4ccc(NC5CN(C(C)=O)C5)cc4)nc23)c1 [Example C124, N-(3-(2-((4-((1-acetylazetidin-3-yl)amino)phenyl)amino)quinazolin-8-yl)phenyl)acrylamide] | < 50 | < 50 | > 50 | < 100 |  |  | 
C=CC(=O)Nc1cccc(-c2cccc3cnc(Nc4ccc(OC5CCN(C(C)=O)CC5)cc4)nc23)c1 [Example C125, N-(3-(2-((4-((1-acetylpiperidin-4-yl)oxy)phenyl)amino)quinazolin-8-yl)phenyl)acrylamide] | < 50 | < 50 | > 50 | < 100 |  |  | 
C=CC(=O)Nc1cccc(-c2cccc3cnc(Nc4ccc(N5CCNC(=O)C5)cc4)nc23)c1 [Example C117, N-(3-(2-((4-(3-oxopiperazin-1-yl)phenyl)amino)quinazolin-8-yl)phenyl)acrylamide] | < 50 | < 50 | > 50 | 100 to 500 |  |  | 
C=CC(=O)Nc1cccc(-c2c(F)ccc3cnc(Nc4ccc(N5CCN(C)CC5)cc4)nc23)c1 [Example C087, N-(3-(7-fluoro-2-((4-(4-methylpiperazin-1-yl)phenyl)amino)quinazolin-8-yl)phenyl)acrylamide] | > 50 | > 50 |  | 100 to 500 | < 100 | 100 to 500 | 
C=CC(=O)Nc1cccc(-c2cccc3cnc(Nc4ccc(N5CCN(CCF)CC5)cc4)nc23)c1F [Example C061, N-(2-fluoro-3-(2-((4-(4-(2-fluoroethyl)piperazin-1-yl)phenyl)amino)quinazolin-8-yl)phenyl)acrylamide] | < 50 | > 50 |  | < 100 | < 100 | > 500 | 
C=CC(=O)Nc1cccc(-c2cccc3cnc(Nc4ccc(N5CCN(C(C)=O)CC5)cc4)nc23)c1F [Example C049, N-(3-(2-((4-(4-acetylpiperazin-1-yl)phenyl)amino)quinazolin-8-yl)-2-fluorophenyl)acrylamide] | > 50 | > 50 |  | 100 to 500 | < 100 | > 500 | 
C=CC(=O)Nc1cccc(-c2cccc3cnc(Nc4ccc(N5CCN(C)CC5)c(C#N)c4)nc23)c1 [Example C074, N-(3-(2-((3-cyano-4-(4-methylpiperazin-1-yl)phenyl)amino)quinazolin-8-yl)phenyl)acrylamide] | < 50 | > 50 |  | 100 to 500 | < 100 | 100 to 500 | 
C=CC(=O)Nc1cc(-c2cccc3cnc(Nc4ccc(N5CCN(C)CC5)cc4)nc23)ccn1 [Example C057, N-(4-(2-((4-(4-methylpiperazin-1-yl)phenyl)amino)quinazolin-8-yl)pyridin-2-yl)acrylamide] | > 50 | > 50 |  | 100 to 500 | < 100 | 100 to 500 | 
C=CC(=O)Nc1cccc(-c2cccc3cnc(Nc4ccc(OC5CCN(CCF)CC5)cc4)nc23)c1 [Example C136, N-(3-(2-((4-((1-(2-fluoroethyl)piperidin-4-yl)oxy)phenyl)amino)quinazolin-8-yl)phenyl)acrylamide] | < 50 | > 50 |  | < 100 |  | < 100 | 
C=CC(=O)Nc1cccc(-c2cccc3cnc(Nc4ccc(N5CCN(C)CC5)c(F)c4)nc23)c1 [Example C069, N-(3-(2-((3-fluoro-4-(4-methylpiperazin-1-yl)phenyl)amino)quinazolin-8-yl)phenyl)acrylamide] | > 50 | > 50 |  | < 100 |  | < 100 | 
C=CC(=O)Nc1cccc(-c2cccc3cnc(Nc4ccc(N5CCN(C)CC5)nc4)nc23)c1F [Example C048, N-(2-fluoro-3-(2-((6-(4-methylpiperazin-1-yl)pyridin-3-yl)amino)quinazolin-8-yl)phenyl)acrylamide] | > 50 | > 50 |  | < 100 | < 100 | > 500 | < 100
CC(=O)N1CCN(c2ccc(Nc3ncc4cccc(-c5cccc(NC(=O)/C=C/CN(C)C)c5Cl)c4n3)cc2)CC1 [Example C060, (E)-N-(3-(2-((4-(4-acetylpiperazin-1-yl)phenyl)amino)quinazolin-8-yl)-2-chlorophenyl)-4-(dimethylamino)but-2-enamide] | < 50 | > 50 |  | 100 to 500 |  | > 500 | 
C=CC(=O)Nc1cccc(-c2cccc3cnc(Nc4ccc(N5CCN(C)CC5)c(Cl)c4)nc23)c1 [Example C072, N-(3-(2-((3-chloro-4-(4-methylpiperazin-1-yl)phenyl)amino)quinazolin-8-yl)phenyl)acrylamide] | < 50 | > 50 |  | 100 to 500 | < 100 | 100 to 500 | 
C=CC(=O)Nc1cccc(-c2cccc3cnc(Nc4ccc(N5CCOC5=O)cc4)nc23)c1 [Example C091, N-(3-(2-((4-(2-oxooxazolidin-3-yl)phenyl)amino)quinazolin-8-yl)phenyl)acrylamide] | < 50 | < 50 |  | 100 to 500 |  | > 500 | 
C=CC(=O)Nc1cncc(-c2cccc3cnc(Nc4ccc(N5CCN(CCF)CC5)cc4)nc23)c1 [Example C058, N-(5-(2-((4-(4-(2-fluoroethyl)piperazin-1-yl)phenyl)amino)quinazolin-8-yl)pyridin-3-yl)acrylamide] | < 50 | > 50 |  | < 100 |  | > 500 | 
C=CC(=O)Nc1cccc(-c2cccc3cnc(Nc4ccc(NC5CCN(CCF)CC5)cc4)nc23)c1 [Example C138, N-(3-(2-((4-((1-(2-fluoroethyl)piperidin-4-yl)amino)phenyl)amino)quinazolin-8-yl)phenyl)acrylamide] | > 50 | > 50 |  | < 100 | < 100 | 100 to 500 | 
C=CC(=O)Nc1cccc(-c2cccc3cnc(Nc4ccc(N5CCN(C)CC5)cc4)nc23)c1OC [Example C063, N-(2-methoxy-3-(2-((4-(4-methylpiperazin-1-yl)phenyl)amino)quinazolin-8-yl)phenyl)acrylamide] | > 50 | > 50 |  | < 100 | < 100 | > 500 | 
C=CC(=O)Nc1cccc(-c2cccc3cnc(Nc4ccc(N5CCN(C)CC5)cc4)nc23)c1F [Example C045, N-(2-fluoro-3-(2-((4-(4-methylpiperazin-1-yl)phenyl)amino)quinazolin-8-yl)phenyl)acrylamide] | > 50 | > 50 |  | < 100 | < 100 | 100 to 500 | 
C=CC(=O)Nc1cccc(-c2cccc3cnc(Nc4ccc(N5CCN(CC(F)F)CC5)cc4)nc23)c1 [Example C056, N-(3-(2-((4-(4-(2,2-difluoroethyl)piperazin-1-yl)phenyl)amino)quinazolin-8-yl)phenyl)acrylamide] | < 50 | < 50 |  | 100 to 500 |  | > 500 | 
C=CC(=O)Nc1cccc(-c2cccc3cnc(Nc4ccc(OC5CCN(C)CC5F)cc4)nc23)c1F (centres unmarked) [Example C080, N-(2-fluoro-3-(2-((4-((3-fluoro-1-methylpiperidin-4-yl)oxy)phenyl)amino)quinazolin-8-yl)phenyl)acrylamide] | > 50 | > 50 |  | < 100 | < 100 | 100 to 500 | 
